The values below come from patent US20190262371A1, “METHODS AND COMPOSITION FOR THE TREATMENT OF RNA VIRAL INFECTIONS” (The Regents of the University of California, priority 2016, published 2019).

In the assay the test system is ZIKV (MR766). Nature of the assay: Inhibitor activity analysis: effect of methyltransferase inhibitors on ZIKV replication in a microglial cell line (supernatant one-step qRT-PCR). In kind it is cell-based, ZIKA virus. Particulars: assay not given, presumably ZIKV inhibition, 10 μM, MOI 1, 24 h / 48 h, normalized to DMSO. Here is the method:
FIG. 7. Microglial cell-line was plated 1×10^6 cells per well in 24 well plate and cultured for 24 h. Cell were then treated in triplicate with series of methyltransferase inhibitors ([…]) for one hour followed by infection with ZIKV (MR766, MOI: 1) and changed the fresh medium after 2 hrs of ZIKV infection and re-added the drugs. After 24 h of the infection, we collected the supernatant and did one-step qRT-PCR. Fold inhibition of ZIKV infection was normalized from DMSO control.
FIG. 8. Microglial cell-line was plated 1×10^6 cells per well in 24 well plate and cultured for 24 h. […]
Effects of methyltransferase inhibitors on ZIKV replication was monitored using previously published methods (Dang, J., Tiwari, S. K., Lichinchi, G., Qin, Y., Patil, V. S., Eroshkin, A. M., and Rana, T. M. (2016); Zika Virus Depletes Neural Progenitors in Human Cerebral Organoids through Activation of the Innate Immune Receptor TLR3. Cell Stem Cell 19, 258-265; Lichinchi, G., Zhao, B. S., Wu, Y., Lu, Z., Qin, Y., He, C., and Rana, T. M. (2016). Dynamics of Human and Viral RNA Methylation during Zika Virus Infection. Cell Host Microbe 20, 666-673; Tiwari, S. K., Dang, J., Qin, Y., Lichinchi, G., Bansal, V., and Rana, T. M. (2017), which are incorporated herein in their entirety for all purposes). […]
(In general: In qPCR the cycle at which signal appears reflects the starting amount.)

In the case of `Nc1ncnc2c1ncn2C1OC(CNCCn2c3ccccc3c3ccccc32)C(O)C1O` (stereo not shown) [TR-H-08], the “activity (found to be an active compound)” value is “active”.
